# According to ChEMBL document CHEMBL4138276, “Hamigerans R and S: Nitrogenous Diterpenoids from the New Zealand Marine Sponge Hamigera tarangaensis” (J Nat Prod, 2018):
# The source made the active and inactive calls. No cut-off for these calls is given here.
# System: HL-60
# Test: Cytotoxicity against human HL60 cells assessed as inhibition of cell proliferation at <10 uM after 48 hrs by MTT assay
# Type: functional, cell-based
row,Compound,inhibition
1,COC(=O)[C@]1(O)C(=O)c2c(O)c(Br)c(C)c(Br)c2[C@H]2[C@@H](C(C)C)CC[C@]21C,inactive
2,Cc1cc(O)c2c(c1)[C@H]1[C@@H](C(C)C)CC[C@@]1(C)C(=O)C2=O,inactive
3,Cc1cc2c3c(c1Br)O[C@]14N[C@]3(Oc3c(Br)c(C)cc(c31)[C@H]1[C@@H](C(C)C)CC[C@@]1(C)CC4=O)C(=O)C[C@]1(C)CC[C@H](C(C)C)[C@H]21,inactive
4,COC(=O)[C@@]1(O)C(=O)[C@]2(C)CC[C@H](C(C)C)[C@@H]2c2cc(C)cc(O)c21,inactive
5,COC(=O)c1c([C@H]2[C@@H](C(C)C)CC[C@@]2(C)CC(=O)O)cc(C)c(Br)c1O,inactive
6,Cc1cc(O)c2c(c1)[C@H]1[C@@H](C(C)C)CC[C@@]1(C)[C@@H](O)[C@H](O)C2=O,inactive
7,Cc1cc([C@H]2[C@@H](C(C)C)CC[C@@]2(C)CC(=O)O)c(C#N)c(O)c1Br,inactive
